Experimental data as given in PubChem BioAssay (NCI).
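Protocol summary: plate cells (96-well), add compound at 5 concentrations, incubate 48 h, interpolate endpoints linearly. TGI: concentration producing complete growth inhibition.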

Tests used:
Experiment in all cases: inhibition of tumour cell growth, NCI panel, 48 h
A549 NSCLC = tested on: A549 NSCLC
ACHN renal = tested on: ACHN renal
CCRF-CEM leukemia = tested on: CCRF-CEM leukemia
COLO 205 colon = tested on: COLO 205 colon
DU-145 prostate = tested on: DU-145 prostate
EKVX NSCLC = tested on: EKVX NSCLC
HCC-2998 colon = tested on: HCC-2998 colon
HCT-116 colon = tested on: HCT-116 colon
HCT-15 colon = tested on: HCT-15 colon
HL-60(TB) leukemia = tested on: HL-60(TB) leukemia
HOP-62 NSCLC = tested on: HOP-62 NSCLC
HT29 colon = tested on: HT29 colon
IGROV1 ovarian = tested on: IGROV1 ovarian
K-562 leukemia = tested on: K-562 leukemia
LOX IMVI melanoma = tested on: LOX IMVI melanoma
M14 melanoma = tested on: M14 melanoma
MALME-3M melanoma = tested on: MALME-3M melanoma
MCF7 breast = tested on: MCF7 breast
MDA-MB-231 breast = tested on: MDA-MB-231 breast
MDA-MB-435 = tested on: MDA-MB-435
MDA-N = tested on: MDA-N
MOLT-4 leukemia = tested on: MOLT-4 leukemia
NCI-H460 lung = tested on: NCI-H460 lung
NCI-H522 lung = tested on: NCI-H522 lung
NCI/ADR-RES ovarian = tested on: NCI/ADR-RES ovarian
OVCAR-3 ovarian = tested on: OVCAR-3 ovarian
OVCAR-4 ovarian = tested on: OVCAR-4 ovarian
OVCAR-5 ovarian = tested on: OVCAR-5 ovarian
OVCAR-8 ovarian = tested on: OVCAR-8 ovarian
PC-3 prostate = tested on: PC-3 prostate
RPMI-8226 leukemia = tested on: RPMI-8226 leukemia
SF-268 CNS = tested on: SF-268 CNS
SF-295 CNS = tested on: SF-295 CNS
SK-MEL-28 melanoma = tested on: SK-MEL-28 melanoma
SK-MEL-5 melanoma = tested on: SK-MEL-5 melanoma
SK-OV-3 ovarian = tested on: SK-OV-3 ovarian
SNB-19 CNS = tested on: SNB-19 CNS
SW-620 colon = tested on: SW-620 colon
T-47D breast = tested on: T-47D breast
TK-10 renal = tested on: TK-10 renal
U251 CNS = tested on: U251 CNS
UACC-257 melanoma = tested on: UACC-257 melanoma
UACC-62 melanoma = tested on: UACC-62 melanoma
UO-31 renal = tested on: UO-31 renal
786-0 renal = tested on: 786-0 renal
A498 renal = tested on: A498 renal
CAKI-1 renal = tested on: CAKI-1 renal
HS 578T breast = tested on: HS 578T breast
KM12 colon = tested on: KM12 colon
NCI-H226 lung = tested on: NCI-H226 lung
NCI-H23 lung = tested on: NCI-H23 lung
RXF 393 renal = tested on: RXF 393 renal
SF-539 CNS = tested on: SF-539 CNS
SK-MEL-2 melanoma = tested on: SK-MEL-2 melanoma
SN12C renal = tested on: SN12C renal
SR leukemia = tested on: SR leukemia

Measured: TGI

Nc1ccc(OCC(O)N2C(=O)c3ccccc3C2=O)cc1 (stereo not given)
> 100 µM: A549 NSCLC | ACHN renal | CCRF-CEM leukemia | COLO 205 colon | DU-145 prostate | EKVX NSCLC | HCC-2998 colon | HCT-116 colon | HCT-15 colon | HL-60(TB) leukemia | HOP-62 NSCLC | HT29 colon | IGROV1 ovarian | K-562 leukemia | LOX IMVI melanoma | M14 melanoma | MALME-3M melanoma | MCF7 breast | MDA-MB-231 breast | MDA-MB-435 | MDA-N | MOLT-4 leukemia | NCI-H460 lung | NCI-H522 lung | NCI/ADR-RES ovarian | OVCAR-3 ovarian | OVCAR-4 ovarian | OVCAR-5 ovarian | OVCAR-8 ovarian | PC-3 prostate | RPMI-8226 leukemia | SF-268 CNS | SF-295 CNS | SK-MEL-28 melanoma | SK-MEL-5 melanoma | SK-OV-3 ovarian | SNB-19 CNS | SW-620 colon | T-47D breast | TK-10 renal | U251 CNS | UACC-257 melanoma | UACC-62 melanoma | UO-31 renal

O=C1NC(=O)[C@@H](OCC2CCCCC2)[C@@H]2OCC3OC(C(O)C3O)C12 (stereo not given in full)
> 100 µM: 786-0 renal | A498 renal | A549 NSCLC | ACHN renal | CAKI-1 renal | CCRF-CEM leukemia | COLO 205 colon | DU-145 prostate | EKVX NSCLC | HCC-2998 colon | HCT-116 colon | HCT-15 colon | HL-60(TB) leukemia | HOP-62 NSCLC | HS 578T breast | HT29 colon | IGROV1 ovarian | KM12 colon | LOX IMVI melanoma | M14 melanoma | MALME-3M melanoma | MCF7 breast | MDA-MB-231 breast | MDA-MB-435 | MDA-N | MOLT-4 leukemia | NCI-H226 lung | NCI-H23 lung | NCI-H460 lung | NCI/ADR-RES ovarian | OVCAR-3 ovarian | OVCAR-4 ovarian | OVCAR-5 ovarian | OVCAR-8 ovarian | PC-3 prostate | RXF 393 renal | SF-268 CNS | SF-295 CNS | SF-539 CNS | SK-MEL-2 melanoma | SK-MEL-28 melanoma | SK-MEL-5 melanoma | SK-OV-3 ovarian | SN12C renal | SNB-19 CNS | SR leukemia | SW-620 colon | T-47D breast | TK-10 renal | UACC-257 melanoma | UACC-62 melanoma
